We go through 20 compounds from article PMC5152890 (PLoS ONE, 2016).

For one test, the target named is T1, hVEGFR1-ECD (Homo sapiens, UniProt P17948).
T1 construct: purchased R&D Systems, Abingdon, UK
The test is classed as binding. The note with it: for % displacement at 30 μM: 1% DMSO; for IC50: read-out: IC50 [95% CI]; for effect on the competition assay (in words): divalent cations, VEGF-A/hVEGFR1 interaction.

The next test concerns the target T2, hVEGFR1d2 (Homo sapiens, UniProt P17948).
T2 construct: The human hVEGFR1d2 protein (residues 132–226) was expressed and purified; made in house; host or cells: E. coli Rosetta-gami(DE3)pLysS is stated only for the 15N-labelled batch
Nature of the test: analytical size exclusion chromatography of hVEGFR1d2 dimerization. The note with it: 1 mM CuSO4, 160 μM hVEGFR1d2, gel filtration. The procedure: Because the competition assay results indicated a higher effect of Cu^2+ ions compared to Zn^2+ or Co^2, the Cu^2+-induced dimerization of hVEGFR1d2 in solution was verified using analytical gel-filtration chromatography. In the presence of 1 mM EDTA a single hVEGFR1d2 peak was observed, which represents the monomer (apparent MW = 14.9 kDa). In the presence of 1 mM CuSO4, two peaks were eluted corresponding respectively to the hVEGFR1d2 dimer (78% of absorption, apparent MW = 27.9 kDa) and monomer (apparent MW = 15.8 kDa). SDS-PAGE analysis confirmed that both peaks consist of hVEGFR1d2 (Fig 7).
The Cu^2+-induced dimerization of hVEGFR1d2 was confirmed using a precalibrated analytical gel-filtration column (Superdex™75 HR 10/300 Amersham GE Healthcare, Little Chalfont, UK). Prior to loading, samples were prepared by incubating 160 μM hVEGFR1d2 in a buffer containing 25 mM Tris-HCl, pH 8.1, 250 mM NaCl, and either 1 mM EDTA or 1mM CuSO4 for 30 min at 18°C. Subsequently, 50 μL of this mixture was loaded at 0.5 mL/min on the column that was equilibrated with the identical respective buffers. Elution peaks were integrated, and the corresponding fractions were analyzed on SDS-PAGE.
On the technique in general: In gel filtration, larger molecules generally elute earlier.

[1] abbreviates: biotinylated VEGF-A165 displaced by 30 μM of metal on whole ECD (d1-d7) of VEGFR1.
The mark [2] stands for this setting: concentration displacing 50% of biotinylated VEGF-A165 binding on VEGFR1 (ECD).

Where two headings read alike, the source gives them in different places.

T1 sequence (P17948 27-687 isoform P17948-2): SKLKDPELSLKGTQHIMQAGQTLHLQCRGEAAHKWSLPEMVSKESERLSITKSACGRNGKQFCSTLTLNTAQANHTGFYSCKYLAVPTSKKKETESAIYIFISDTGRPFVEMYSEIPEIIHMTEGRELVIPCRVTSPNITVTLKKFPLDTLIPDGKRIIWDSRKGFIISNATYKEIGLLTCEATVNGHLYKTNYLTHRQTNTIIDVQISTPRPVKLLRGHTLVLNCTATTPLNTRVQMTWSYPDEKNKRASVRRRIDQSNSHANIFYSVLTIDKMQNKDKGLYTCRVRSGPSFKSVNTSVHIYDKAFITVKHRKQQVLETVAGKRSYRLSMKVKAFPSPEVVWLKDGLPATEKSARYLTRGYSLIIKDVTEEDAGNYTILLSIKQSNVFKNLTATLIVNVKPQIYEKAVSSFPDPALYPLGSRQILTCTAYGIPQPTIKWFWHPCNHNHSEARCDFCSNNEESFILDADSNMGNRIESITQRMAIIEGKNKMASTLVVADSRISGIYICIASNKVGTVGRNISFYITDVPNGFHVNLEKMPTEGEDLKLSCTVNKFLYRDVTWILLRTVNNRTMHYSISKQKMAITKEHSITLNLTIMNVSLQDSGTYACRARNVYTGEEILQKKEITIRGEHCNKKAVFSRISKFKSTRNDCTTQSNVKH
T2 sequence (P17948 132-226): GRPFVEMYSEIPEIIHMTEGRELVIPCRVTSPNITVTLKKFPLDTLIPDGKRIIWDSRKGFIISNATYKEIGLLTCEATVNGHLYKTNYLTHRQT

As usually defined, the IC50 is the concentration that gives 50% inhibition. Consider `[Cl][Cd][Cl]` [CdCl2], for which, at hVEGFR1-ECD (setting [1]), the “% displacement at 30 μM” value is 38 ± 4%. The IC50 at hVEGFR1-ECD (setting [2]) came out at 48000 nM. `[Cd+2]` [Cd^2+]: the “effect on the competition assay (in words)” value (shortened to “effect”) at hVEGFR1-ECD was “little”. For the compound `[Cl-].[Cl-].[Co+2]` [CoCl2], on hVEGFR1-ECD, the “% displacement at 30 μM” value is given as 40 ± 2% and the IC50 was 47100 nM. On to `O=S(=O)([O-])[O-].[Co+2]` [CoSO4], for which the “% displacement at 30 μM” value on hVEGFR1-ECD (setting [1]) is listed as 44 ± 1%. `[Co+2]` [Co^2+]: on hVEGFR1-ECD, the “effect” value is “little”. `CC(=O)[O-].CC(=O)[O-].[Cu+2]` [Cu(OAc)2]: the “% displacement at 30 μM” value on hVEGFR1-ECD (setting [1]) is given as 69 ± 2%. For the same compound, at hVEGFR1-ECD (setting [2]), the IC50 was determined as 1320 nM. For the compound `[Cl][Cu][Cl]` [CuCl2], the “% displacement at 30 μM” value at hVEGFR1-ECD (setting [1]) turned out to be 87 ± 2%. Besides, the IC50 at hVEGFR1-ECD (setting [2]) is 1260 nM. In the case of `O=S(=O)([O-])[O-].[Cu+2]` [CuSO4], the “hVEGFR1d2 dimer peak, % of absorption” value on hVEGFR1d2 is recorded as 78%. Also, the “% displacement at 30 μM” value at hVEGFR1-ECD (setting [1]) worked out at 83 ± 8%. Besides, the IC50 on hVEGFR1-ECD (setting [2]) is 970 nM. With `[Cu+2]` [Cu^2+], the “disruption of the VEGF-A/hVEGFR1-ECD interaction in the presence of a metal chelator” value on hVEGFR1-ECD (with EDTA, 1 eq.) is “unable to disrupt the VEGF-A/hVEGFR1-ECD interaction”. Consider `O=S(=O)([O-])[O-].[Fe+2]` [FeSO4], for which the “% displacement at 30 μM” value on hVEGFR1-ECD (setting [1]) amounted to 13 ± 5%. With `[Fe+2]` [Fe^2+], the “effect” value at hVEGFR1-ECD is listed as “no effect”. Take `O=S(=O)([O-])[O-].[Mn+2]` [MnSO4]: the “% displacement at 30 μM” value at hVEGFR1-ECD (setting [1]) came to 0%. For `[Mn+2]` [Mn^2+], the “effect” value on hVEGFR1-ECD is given as “no effect”. Take `O=S(=O)([O-])[O-].[Na+].[Na+]` [Na2SO4]: at hVEGFR1-ECD (setting [1]), the “% displacement at 30 μM” value was found to be 0%. In the case of `O=S(=O)([O-])[O-].[Ni+2]` [NiSO4], the “% displacement at 30 μM” value on hVEGFR1-ECD (setting [1]) is reported as 75 ± 1%. At hVEGFR1-ECD (setting [2]), the IC50 amounted to 3540 nM. Regarding `[Ni+2]` [Ni^2+], the “IC50 [95% CI]” value on hVEGFR1-ECD (setting [2]) is “within the micromolar range”. For the compound `CC(=O)[O-].CC(=O)[O-].[Pd+2]` [Pd(OAc)2], the “% displacement at 30 μM” value at hVEGFR1-ECD (setting [1]) is 97 ± 3%. Besides, at hVEGFR1-ECD (setting [2]), the IC50 was found to be 360 nM. For `[Cl][Pd][Cl]` [PdCl2] the same measures were 93 ± 1% and 250 nM. For `O=S(=O)([O-])[O-].[Zn+2]` [ZnSO4] the same measures were 61 ± 2% and 5940 nM. On to `[Zn+2]` [Zn^2+], for which the “IC50 [95% CI]” value on hVEGFR1-ECD (setting [2]) is listed as “within the micromolar range”.
